Source: patent US4536510A, “Method of antagonizing the effects of thromboxane” (Smith Kline Beckman Corporation, priority 1983, dated 1985)
Where two headings read alike, the source gives them in different places.

What was measured:
[1] = system: isolated guinea pig lung parenchymal strips; assay: Antagonism of contractions elicited by carbocyclic thromboxane A2 (CTA2), lung parenchymal strips; settings: for contractile response (mg tension): lung parenchyma, Compound I 1×10^-5 M, 30 min
Procedure: (§1) Isolated guinea pig tracheas or paired lung parenchymal strips were attached via silk suture to force displacement transducers for recording changes in isometric tension. The tissues were equilibrated for one hour in modified Krebs' buffer at 37.5° C. and aerated with 95% O2 /5% CO2. Then, the tissues were equilibrated for 30 additional minutes with N,N'-bis[7-(3-chlorobenzeneaminosulfonyl)-1,2,3,4-tetrahydroisoquinolyl]disulfonylimide (Compound I) (1×10^-5 M) or buffer. Contraction of the tissues was then elicited by increasing the bath concentration of CTA2 in a cumulative fashion. The contractile responses were recorded as changes in mg tension.

[2] = system: isolated guinea pig tracheas; assay: Antagonism of contractions elicited by carbocyclic thromboxane A2 (CTA2), trachea; settings: for contractile response (mg tension): trachea, Compound I 1×10^-5 M, 30 min
Procedure: as §1

[3] = system: human platelet aggregation; assay: Inhibition of human platelet aggregation in platelet-rich plasma; type: cell-based
Procedure: Platelet-rich plasma (PRP) and platelet-poor plasma (PPP) are prepared from citrated blood of drug-free human volunteers and are stored at room temperature for at least 30 minutes before use. Each PRP sample is preincubated two minutes at 37° C. prior to addition of N,N-bis[7-(3-chlorobenzeneaminosulfonyl)-1,2,3,4-tetrahydroisoquinolyl]disulfonylimide (Compound I) or agonists; Compound I is preincubated for 1 minute prior to addition of agonist. A dose response is determined for each agonist, and a concentration which gives a biphasic response is selected. Compounds are tested for inhibition of the response (control response) generated by this agonist concentration. A time is selected, and the height at which the various curves intersect this time line is measured and expressed in mm (a measure of light transmittance). The difference between the response of the control and that with inhibitor present is used to calculate percent inhibition. This value is plotted against inhibitor concentrations to determine the IC50 (the inhibitory concentration of Compound I which inhibits aggregation by 50%).

[4] = system: canine bronchoconstriction induced by U-44069; assay: Protection in a drug-induced (U-44069) canine bronchospasm; type: in vivo, mongrel dogs; settings: for Decrease in ability of lungs to expand easily / Increase in resistance to movement of air into the lungs: anesthetized dogs
Procedure: Bronchopulmonary responses to these agents were measured by computer analyses in 5 spontaneously breathing, anesthetized mongrel dogs. In a dose range of 0.3-3.0 μg/kg i.v., the endoperoxide analog produced dose-related alterations in pulmonary airway resistance, dynamic lung compliance, expiratory airflow rate, tidal volume and respiratory frequency. […] Inhibition by Compound I occurred in all pulmonary parameters calculated.

[5] = pretreat with Compound I 5 mg/kg i.v., then U-44069 0.3 μg/kg i.v.
[6] = pretreat with Compound I 5 mg/kg i.v., then U-44069 1.0 μg/kg i.v.
[7] = pretreat with Compound I 5 mg/kg i.v., then U-44069 3.0 μg/kg i.v.

In the case of `O=S(=O)(Nc1cccc(Cl)c1)c1ccc2c(c1)CN(S(=O)(=O)NS(=O)(=O)N1CCc3ccc(S(=O)(=O)Nc4cccc(Cl)c4)cc3C1)CC2` [Compound I, N,N'-bis[7-(3-chlorobenzeneaminosulfonyl)-1,2,3,4-tetrahydroisoquinolyl]disulfonylimide], the “response to challenge with reference contractile agonist” value ([1]; lung parenchyma receiving Compound I, 1 × 10^-3 M histamine) is reported as “responded normally”, the “contractile response (mg tension)” value ([1]; CTA2 10^-6 M, control 181.5 ± 23.3) is reported as 0 mg tension and the “contractile response (mg tension)” value ([1]; CTA2 10^-7 M, control 103.5 ± 23.7) is reported as 0 mg tension. The “contractile response (mg tension)” value ([1]; CTA2 10^-8 M, control 45.5 ± 11.4) was 0 mg tension, the “response to challenge with reference contractile agonist” value ([2]; trachea receiving Compound I, 1 × 10^-5 M carbachol) was “responded normally” and the “contractile response (mg tension)” value ([2]; CTA2 10^-6 M, control 360.0 ± 89.8) was 42.9 ± 20.2 mg tension. The “contractile response (mg tension)” value ([2]; CTA2 10^-7 M, control 125.0 ± 33.5) was 0 mg tension, the “contractile response (mg tension)” value ([2]; CTA2 10^-8 M, control 0) was 0 mg tension and the IC50 ([3]; agonist A23187, human PRP, read-out: IC50, inhibition of secondary phase) was 12 µM. The IC50 ([3]; agonist Platelet Activating Factor (PAF), human PRP, read-out: IC50, inhibition of secondary phase) was 4.5 µM, the IC50 ([3]; agonist U-44069, human PRP, read-out: IC50, inhibition of primary phase) was 2.5 µM and the IC50 ([3]; agonist U-44069, human PRP, read-out: IC50, inhibition of secondary phase) was 1.7 µM. The IC50 ([3]; agonist arachidonic acid, human PRP, read-out: IC50, inhibition of primary phase) was 19 µM, the IC50 ([3]; agonist collagen, human PRP, read-out: IC50, inhibition of primary phase) was 10 µM and the “Decrease in ability of lungs to expand easily” value (from here on “Decrease in ability of lungs”) [4, 5] was 5%. For the same compound, the “Increase in resistance to movement of air into the lungs” value (“Increase in resistance to movement” for short) [4, 5] was 14%, the “Decrease in ability of lungs” value [4, 6] was 13% and the “Increase in resistance to movement” value [4, 6] was 30%. The “Decrease in ability of lungs” value [4, 7] was 28%, the “Increase in resistance to movement” value [4, 7] was 56% and the “effect on U-44069-induced bronchospasm (all pulmonary parameters)” value ([4]; pretreatment with Compound I 5.0 mg/kg i.v., shift to the right of the control U-44069 curve) was “inhibition of the bronchospasm”.

`CCCCC[C@H](O)/C=C/[C@H]1[C@@H]2CO[C@@H](C2)[C@@H]1C/C=C\CCCC(=O)O` [Compound U-44069, reference compound] was tested, and the “Decrease in ability of lungs” value ([4]; U-44069 alone 0.3 μg/kg i.v.) was 28%, the “Increase in resistance to movement” value ([4]; U-44069 alone 0.3 μg/kg i.v.) was 67% and the “Decrease in ability of lungs” value ([4]; U-44069 alone 1.0 μg/kg i.v.) was 56%. For the same compound, the “Increase in resistance to movement” value ([4]; U-44069 alone 1.0 μg/kg i.v.) was 333%, the “Decrease in ability of lungs” value ([4]; U-44069 alone 3.0 μg/kg i.v.) was 70% and the “Increase in resistance to movement” value ([4]; U-44069 alone 3.0 μg/kg i.v.) was 549%.
